Test results: ChEMBL document CHEMBL4831528, “Discovery of Novel Pterostilbene-Based Derivatives as Potent and Orally Active NLRP3 Inflammasome Inhibitors with Inflammatory Activity for Colitis” (J Med Chem, 2021)
pIC50: −log10 of the molar value. Active and inactive are the calls of the source. No cut-off for these calls is given here.

Key:
[1] = biological target: NACHT, LRR and PYD domains-containing protein 3 (Mus musculus) (UniProt Q8R4B8); test: (§1) Inhibition of NLRP3 inflammasome activation in LPS-stimulated mouse J774A.1 cells assessed as inhibition of cell pyrolysis at 20 uM incubated for 1 hr followed by ATP addition and measured after 30 mins by Hoechst 33342/propidium iodide staining based high content screening method relative to control; conditions: J774.A1, time 1.5 hrs
[2] = biological target: NACHT, LRR and PYD domains-containing protein 3 (Mus musculus) (UniProt Q8R4B8); test: as §1, with “10” for “20”; conditions: J774.A1, time 1.5 hrs
Mus musculus [3] = test: Protection against DSS-induced acute ulcerative colitis in C57BL/6 mouse assessed as reduction in adhesion of colon at 20 mg/kg, ig administered for 7 days; assay type: functional, organism-based; conditions: time 7.0 day
[4] = Toxicity in C57BL/6 mouse assessed as effect on diet at 10 to 20 mg/kg, ig administered for 28 days; assay type: organism-based; conditions: in vivo, po, 672 h, dose 10-20 mg/kg, time 28 day
[5] = Toxicity in C57BL/6 mouse assessed as effect on fur at 10 to 20 mg/kg, ig administered for 28 days; assay type: organism-based; conditions: in vivo, po, 672 h, dose 10-20 mg/kg, time 28 day
Mus musculus [6] = test: In vivo inhibition of NLRP3 inflammasome activation in C57BL/6 mouse assessed as reduction in MPO activity at 10 mg/kg, ig administered for 7 days by ELISA; assay type: functional, organism-based; conditions: time 7.0 day
L02 = test: Cytotoxicity against human L-02 cells incubated for 24 hrs by MTT assay; assay type: cell-based; conditions: L02, 24 h
Mus musculus [7] = test: In vivo inhibition of NLRP3 inflammasome activation in C57BL/6 mouse assessed as reduction in MPO activity at 20 mg/kg, ig administered for 7 days by ELISA; assay type: functional, organism-based; conditions: time 7.0 day
[8] = Toxicity in C57BL/6 mouse assessed as effect on activity at 10 to 20 mg/kg, ig administered for 28 days; assay type: organism-based; conditions: in vivo, po, 672 h, dose 10-20 mg/kg, time 28 day
[9] = Toxicity in C57BL/6 mouse assessed as effect on spirit at 10 to 20 mg/kg, ig administered for 28 days; assay type: organism-based; conditions: in vivo, po, 672 h, dose 10-20 mg/kg, time 28 day
Mus musculus [10] = test: Anti-inflammatory activity in C57BL/6 mouse DSS-induced acute ulcerative colitis assessed as reduction in disease index at 10 to 20 mg/kg, ig administered for 7 days; assay type: functional, organism-based; conditions: dose 10-20 mg/kg, time 7.0 day
[11] = biological target: NACHT, LRR and PYD domains-containing protein 3 (Mus musculus, UniProt Q8R4B8); test: Inhibition of NLRP3 inflammasome activation in LPS-stimulated mouse bone marrow-derived macrophages assessed as reduction in IL-1beta secretion preincubated for 30 mins followed by nigericin addition and measured after 30 mins by ELISA; assay type: tissue-based, Macrophage
[12] = Toxicity in C57BL/6 mouse assessed as reduction in survival rate at 20 mg/kg, ig administered for 28 days; assay type: organism-based; conditions: in vivo, po, 672 h, time 28 day

NACHT, LRR and PYD domains-containing protein 3 (Mus musculus), sequence (Q8R4B8 whole entry, the tested form may be a part): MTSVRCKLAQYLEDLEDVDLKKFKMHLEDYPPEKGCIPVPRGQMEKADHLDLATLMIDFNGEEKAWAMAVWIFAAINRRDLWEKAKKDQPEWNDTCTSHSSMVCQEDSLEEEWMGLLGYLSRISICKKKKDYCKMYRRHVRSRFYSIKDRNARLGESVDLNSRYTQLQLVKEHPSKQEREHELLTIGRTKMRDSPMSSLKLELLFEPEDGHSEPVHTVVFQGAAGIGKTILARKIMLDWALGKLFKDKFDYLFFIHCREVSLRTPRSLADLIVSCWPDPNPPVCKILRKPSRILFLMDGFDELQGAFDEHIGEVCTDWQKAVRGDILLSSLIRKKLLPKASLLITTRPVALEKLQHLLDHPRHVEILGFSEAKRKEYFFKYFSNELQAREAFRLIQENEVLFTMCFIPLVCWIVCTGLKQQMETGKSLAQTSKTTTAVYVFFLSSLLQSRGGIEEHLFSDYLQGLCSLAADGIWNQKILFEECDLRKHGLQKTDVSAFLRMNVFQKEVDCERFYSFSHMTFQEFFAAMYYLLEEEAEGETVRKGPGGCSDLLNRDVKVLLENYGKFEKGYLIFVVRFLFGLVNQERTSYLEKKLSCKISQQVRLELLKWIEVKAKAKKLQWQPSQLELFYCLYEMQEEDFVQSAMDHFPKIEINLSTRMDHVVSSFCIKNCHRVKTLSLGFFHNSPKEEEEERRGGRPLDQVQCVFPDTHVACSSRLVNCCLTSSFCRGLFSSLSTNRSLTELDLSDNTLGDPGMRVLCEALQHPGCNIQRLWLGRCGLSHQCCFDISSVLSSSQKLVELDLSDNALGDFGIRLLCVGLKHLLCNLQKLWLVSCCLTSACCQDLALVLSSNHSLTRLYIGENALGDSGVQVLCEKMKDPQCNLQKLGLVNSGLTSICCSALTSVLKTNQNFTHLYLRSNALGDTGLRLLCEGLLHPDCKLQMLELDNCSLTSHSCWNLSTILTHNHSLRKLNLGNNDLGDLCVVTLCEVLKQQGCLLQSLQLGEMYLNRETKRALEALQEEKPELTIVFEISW
NACHT, LRR and PYD domains-containing protein 3, sequence (Q8R4B8 whole entry, the tested form may be a part): as above

For COc1cc(/C=C/c2ccc(N)cc2)c(/C=C/[N+](=O)[O-])c(OC)c1, the inhibition [1] was 75.3%, the inhibition [2] was 54.7% and the Activity (Mus musculus [3]) was “Active”. For the same molecule, the Activity [4] was “Toxic”, the Activity [5] was “Toxic” and the inhibition (Mus musculus [6]) was “Active”. For the same molecule, the pIC50 (L02) was 4.07, the inhibition (Mus musculus [7]) was “inactive” and the Activity [8] was “Toxic”. For the same molecule, the Activity [9] was “Toxic”, the Activity (Mus musculus [10]) was “Active” and the pIC50 [11] was 5.86. For the same molecule, the Activity [12] was “Toxic”.
